For series [1], the system named is Animals. The series is described as follows: Chemotherapy-induced leukopenia (CBC: white blood cells, neutrophils). It counts as in vivo. Particulars: 20 mg/kg TMZ, 100 mg/kg 5-FU; two weeks. How it is done: Animals were treated with different chemotherapy agents inducing leukopenia (20 mg/kg TMZ, 100 mg/kg 5-FU). […] Blood samples were processed for CBC.
Series [2] relates to Animals. The series is described as follows: Chemotherapy-induced anemia (CBC: red blood cells, hematocrit, hemoglobin). The conditions noted are these: for anemia: level of red blood cell count, hemoglobin and hematocrit, chemotherapy agent alone: 20 mg/kg TMZ, 100 mg/kg 5-FU, 40 mg/kg oxaliplatin, two to four weeks; for hemoglobin level, chemotherapeutic agent alone: 100 mg/kg 5-FU or 40 mg/kg oxaliplatin. Here is the method: Animals were treated with three different chemotherapy agents inducing anemia (20 mg/kg TMZ, 100 mg/kg 5-FU, 40 mg/kg oxaliplatin). After two to four weeks of treatments blood was collected via retro-orbital puncture from the different experimental groups. Blood samples were processed for CBC.

For series [3], the system named is neural stem cells. The series is described as follows: Neurosphere assay of periventricular cells from treated animals. It counts as in vivo, Mice. Particulars: TMZ [20 mg/kg] or 5-FU [100 mg/kg] for two weeks. Here is the method: A] Periventricular cells from the brains of animals treated with the indicated treatments were isolated and cultured in the neurosphere assay at clonal density to quantify clonogenic frequency. […] Chemotherapies induced a decline of neural stem cell activity seen by decreased neurosphere formation, which can be improved when combined with our treatment, **, ***, p<0.01, p<0.001, one-way ANOVA. B-C] […] D-E] NSC activity was also measured in the hippocampus, region of the brain involved in cognition.
Mice were fed with control diet or MCT/LC/Curcumin/EGCG/SFN diet. Each dietary group was treated with TMZ [20 mg/kg] or 5-FU [100 mg/kg] for two weeks, after which point brains were harvested and the cells from the periventricular region were cultured at clonal density in the neurosphere assay during one passage (7-14 days) to quantify the sphere forming frequency indicating neural stem cells occurrence in the brains of animals treated with the different treatments.

For series [4], the system named is neural stem cells. The series is described as follows: BrdU immunoreactivity of neural stem cells in sub-ventricular area and hippocampus. It counts as in vivo, Mice. Here is the method:
A] Periventricular cells from the brains of animals treated with the indicated treatments were isolated and cultured in the neurosphere assay at clonal density to quantify clonogenic frequency. […] B-C] […] D-E] NSC activity was also measured in the hippocampus, region of the brain involved in cognition.
A cohort of animals received three injections of BrdU [50 mg/kg] over a 72-hour time period before to be euthanized. Brains were removed, fixed, sectioned and BrdU antibodies used to identify cells that were in S-phase during the 72 hour injection period.

In series [5] the test system is Mice. Description: Paclitaxel-induced nephrotoxicity and hepatotoxicity (kidney and liver mass). The format is in vivo. Particulars: Paclitaxel [5 mg/kg], 3-4 weeks of treatment. Here is the method: Targeted toxicity of the chemotherapeutic agent Paclitaxel was assessed after 3-4 weeks of treatment via measuring the mass of the kidneys.
Toxicity was assessed after 3-4 weeks of treatment via comparing the mass of the liver.
After four weeks of treatments, the organs were harvested and their mass determined.

In series [6] the test system is patients with type 2 diabetes. Particulars: provided by oral intake of 68 grams of broccoli sprouts; cited from earlier work.
For series [7] the following is noted: in vivo; cited from earlier work.
The subject of a further series is neonatal rat. Particulars: cited from earlier work.
For a further series, the system named is healthy subjects. The conditions noted are these: 5000 to 12,000 mg/day; cited from earlier work.
Series [8] deals with rats, guinea pigs and monkeys. The conditions noted are these: cited from earlier work.
Series [9] deals with Mice. The series is described as follows: Von Frey test of mechanosensitivity (chemotherapy-induced peripheral neuropathy). Particulars: Von Frey filament 4 g; cumulative 25 mg/kg Paclitaxel, 40 mg/kg Oxaliplatin.
Procedure: Mechanosensitivity was compared between the different experimental groups. Von Frey test filament (4 g) was pressed to the plantar surface of the hindpaw until the filament just bent.
Animals were also tested for neuropathic pain using the Von Frey Test where the sensitivity of the animals to mechanical stimulus is measured. Similar to the cold allodynia assay, the animals were tested after cumulative doses of 25 mg/kg paclitaxel and 40 mg/kg oxaliplatin. Von Frey test filament (4 g) was pressed to the plantar surface of the hindpaw until the filament just bent. The percent positive response (i.e. paw withdrawal) was recorded.
The next series deals with dogs. The conditions noted are these: 500 mg/kg/day, divided dosage, pre-fed dogs, 13 weeks; cited from earlier work.
The test system of a further series is rodents. Particulars: oral doses as high as 500 mg/kg in rodents; cited from earlier work.
Where [10] appears, read: neonatal rat hypoxic-ischemic injury.

As for `O=c1[nH]cc(F)c(=O)[nH]1` [5-FU, Fluorouracil], the “leukopenia: level of white blood cell and neutrophil count, chemotherapy agent alone” value in the series with Animals [1] is “induced leukopenia”. In the series with Animals [2], the “anemia: level of red blood cell count, hemoglobin and hematocrit, chemotherapy agent alone” value was “induced anemia”; the “hemoglobin level, chemotherapeutic agent alone” value is recorded as “significantly diminished”. For the same molecule, the “sphere forming cells, chemotherapy agent alone” value in the series on neural stem cells [3] is recorded as “decreased number of sphere forming cells”. Moreover, in the series on neural stem cells [4] (diet alone or 5-FU alone), the “NSC activity (BrdU immunoreactivity) in the sub-ventricular area (SVZ), single treatment versus control” value is “reduced level of BrdU+ve cells”. Besides, the “number of BrdU-immunoreactive proliferating neural stem cells relative to controls” value with neural stem cells [4] (subventricular area and hippocampus, three BrdU injections [50 mg/kg] over 72 hours) is “less number of proliferating neural stem cells”.

For the molecule `CC(=O)O[C@H]1C(=O)[C@@]2(C)[C@H]([C@H](OC(=O)c3ccccc3)[C@]3(O)C[C@H](OC(=O)[C@H](O)[C@@H](NC(=O)c4ccccc4)c4ccccc4)C(C)=C1C3(C)C)[C@]1(OC(C)=O)CO[C@@H]1C[C@@H]2O` [Paclitaxel], in the series on Mice [5], the “mass of the kidneys, drug alone” value is “significant diminution of the kidney weight” and the “mass of the liver, drug alone” value is reported as “significant liver enlargement”.

In the case of `C[S+]([O-])CCCCN=C=S` (centres unmarked) [SFN, sulforaphane], the safe non-toxic dose in series [6] was 100 mg. Moreover, in series [7], the elimination entry is recorded as “long terminal elimination phase” and the “time to peak plasma levels” value is not above 2 h. In addition, the infarct ratio result in the series on neonatal rat (24 hours after hypoxic ischemia) is “reduced infarct ratio”. Also, in the series on neonatal rat (setting [10]), the “expression of the Nrf2 antioxidative transcription factor in the brain” value is on record as “increased the expression of the Nrf2” and the “number of apoptotic cells” value is listed as “significantly decreased the number of apoptotic cells”.

On to `Cn1nnc2c(C(N)=O)ncn2c1=O` [TMZ, Temozolomide], for which the “leukopenia: level of white blood cell and neutrophil count, chemotherapy agent alone” value in the series on Animals [1] was “induced leukopenia”. Moreover, the “sphere forming cells, chemotherapy agent alone” value with neural stem cells [3] is recorded as “decreased number of sphere forming cells”.

Regarding `COc1cc(/C=C/C(=O)CC(=O)/C=C/c2ccc(O)c(OC)c2)ccc1O` [curcumin, Curcumin], the “adverse side effects in dose escalation” value in the series on healthy subjects was “no significant adverse side effects”. Further, in series [8], the “toxicity at high doses in preclinical models” value is listed as “safe”.

As to `O=C1[O][Pt]2([NH][C@@H]3CCCC[C@H]3[NH]2)[O]C1=O` [oxaliplatin, Oxaliplatin], in the series with Animals [2], the “anemia: level of red blood cell count, hemoglobin and hematocrit, chemotherapy agent alone” value was “induced anemia”; the “hemoglobin level, chemotherapeutic agent alone” value is on record as “significantly diminished”. Further, in the series with Mice [9], the “mechanosensitivity (percent positive response, paw withdrawal), chemotherapy alone, FIG. 12” value was “increased”.

For the molecule Epigallocatechin-3-gallate [EGCG], the “adverse events or toxicity” value with dogs is “no adverse events or toxicity”. Moreover, the “genotoxic or short term toxicity” value in the series with rodents was “no genotoxic or short term toxicity”.

The record behind these values is patent US11020372B2, “Dietary and natural product management of negative side effects of cancer treatment” (UNIVERSITY OF FLORIDA RESEARCH FOUNDATION, INC., priority 2015, dated 2021).
